Patent publication US9914706B2, “N-substituted pyrazolyl guanidine F1F0-ATPase inhibitors and therapeutic uses thereof” (Lycera Corporation, priority 2013, dated 2018)

test system: Ramos cells; test: Cytotoxicity in Ramos cells; format: cell-based; details: Homo sapiens, read-out: Ramos Cell EC50
Procedure: Exemplary compounds described in above Examples were tested for activity against F1F0-ATPase by measuring the ability of the compounds to inhibit ATP synthesis. In addition, the compounds were assessed for cytotoxicity in Ramos cells. Inhibition of F1F0-ATPase activity in synthesizing ATP and cytotoxicity in Ramos cells were measured according to the procedures described in K. M. Johnson et al. Chemistry & Biology 2005, 12, 485-496.

Structure (SMILES)	EC50 [µM]
O=C(/N=C(/Nc1cccc(Cl)c1F)Nc1cc(C(F)(F)F)nn1-c1cccc(Cl)c1)c1ccc(F)c(F)c1 [Compound A-22]	< 10
O=C(N=C(Nc1cc(F)cc(Cl)c1)Nc1cc(C(F)(F)F)nn1C1CCCC1)c1ccc(Cl)cc1 [Compound A-58, 4-chloro-N-(((3-chloro-5-fluorophenyl)amino)((1-cyclopentyl-3-(trifluoromethyl)-1H-pyrazol-5-yl)amino)methylene)benzamide]	< 10
COc1cccc(C(=O)/N=C(/Nc2cc(F)cc(Cl)c2)Nc2cc(C(F)(F)F)nn2C2CCCC2)c1 [Compound A-49]	< 10
O=C(/N=C(/Nc1cc(F)cc(Cl)c1)Nc1cc(C(F)(F)F)nn1C1CCCC1)c1ccc(Cl)cc1F [Compound A-42]	< 10
N#Cc1cccc(C(=O)/N=C(/Nc2cccc(Cl)c2)Nc2cc(C(F)(F)F)nn2C2CCCC2)c1 [Compound A-55]	< 10
O=C(/N=C(/Nc1cc(F)cc(Cl)c1)Nc1ccnn1-c1ccccc1)c1cccc(Cl)c1 [Compound A-29]	< 10
O=C(/N=C(/Nc1cc(F)cc(Cl)c1)Nc1cc(C(F)(F)F)nn1-c1ccc(F)cc1)c1cccc(Cl)c1 [Compound A-19]	< 10
O=C(/N=C(/Nc1cc(F)cc(Cl)c1)Nc1cc(C(F)(F)F)nn1C1CCCC1)c1cccc(Cl)c1 [Compound A-26]	< 10
O=C(/N=C(/Nc1cccc(C(F)(F)F)c1)Nc1cc(C(F)(F)F)nn1-c1ccc(F)cc1)c1ccc(Cl)cc1 [Compound A-18]	< 10
O=C(/N=C(/Nc1cc(F)cc(Cl)c1)Nc1cc(C(F)(F)F)nn1C1CCOCC1)c1cccc(Cl)c1 [Compound A-36]	< 10
O=C(/N=C(/Nc1cc(F)cc(Cl)c1)Nc1cc(C(F)(F)F)nn1C1CCCC1)c1ccc(F)c(F)c1 [Compound A-33]	< 10
COc1ccc(C(=O)/N=C(/Nc2cccc(Cl)c2)Nc2cc(C(F)(F)F)nn2CCO)cc1 [Compound A-8]	< 10
O=C(/N=C(/Nc1cc(F)cc(Cl)c1)Nc1cc(C(F)(F)F)nn1C1CCCC1)c1cccc(Cl)c1F [Compound A-44]	< 10
CS(=O)(=O)N1CCC(n2nc(C(F)(F)F)cc2N/C(=N\C(=O)c2cccc(Cl)c2)Nc2cc(F)cc(Cl)c2)CC1 [Compound A-37]	< 10
Cc1c(C(F)(F)F)nn(-c2ccc(F)cc2)c1N/C(=N\C(=O)c1ccc(C(F)(F)F)cc1)Nc1cc(F)cc(Cl)c1 [Compound A-24]	< 10
O=C(/N=C(/Nc1cc(F)cc(Cl)c1)Nc1cc(C(F)(F)F)nn1-c1ccc(F)cc1)c1ccc(Cl)cc1 [Compound A-16]	< 10
O=C(/N=C(/Nc1cccc(Cl)c1)Nc1cc(C(F)(F)F)nn1C1CCCC1)c1ccc(Cl)cc1 [Compound A-53]	< 10
N#CCCn1nc(C(F)(F)F)cc1N/C(=N\C(=O)c1ccc(C(F)(F)F)cc1)Nc1cc(F)cc(Cl)c1 [Compound A-2]	< 10
NC(=O)Cn1nc(C(F)(F)F)cc1N/C(=N\C(=O)c1ccc(C(F)(F)F)cc1)Nc1cc(F)cc(Cl)c1 [Compound A-6]	< 10

Structure (SMILES)	EC50 [µM]
O=C(/N=C(/Nc1cc(F)cc(Cl)c1)Nc1cc(C(F)(F)F)nn1C1CCCC1)c1ccc(Cl)cc1Cl [Compound A-46]	< 10
O=C(/N=C(/Nc1cc(F)cc(Cl)c1)Nc1cc(C(F)(F)F)nn1-c1cc(O)cc(O)c1)c1ccc(F)c(F)c1 [Compound A-35]	< 10
N#Cc1ccc(C(=O)/N=C(/Nc2cccc(Cl)c2)Nc2cc(C(F)(F)F)nn2C2CCCC2)cc1 [Compound A-52]	< 10
Cc1c(C(F)(F)F)nn(-c2ccc(F)cc2)c1N/C(=N\C(=O)c1ccc(F)c(F)c1)Nc1cccc(Cl)c1F [Compound A-25]	< 10
Cc1c(Cl)cccc1C(=O)/N=C(/Nc1cc(F)cc(Cl)c1)Nc1cc(C(F)(F)F)nn1C1CCCC1 [Compound A-43]	< 10
Cc1cc(F)ccc1C(=O)/N=C(/Nc1cc(F)cc(Cl)c1)Nc1cc(C(F)(F)F)nn1C1CCCC1 [Compound A-47]	< 10
Cc1c(C(F)(F)F)nn(CCO)c1N/C(=N\C(=O)c1ccc(C(F)(F)F)cc1)Nc1cc(F)cc(Cl)c1 [Compound A-7]	< 10
O=C(/N=C(/Nc1cc(F)cc(Cl)c1)Nc1cc(C(F)(F)F)nn1C1CCCC1)c1cc(F)c(Cl)cc1Cl [Compound A-39]	< 10
CCOC(=O)Cn1nc(C(F)(F)F)cc1N/C(=N\C(=O)c1ccc(C(F)(F)F)cc1)Nc1cc(F)cc(Cl)c1 [Compound A-4]	< 10
O=C(/N=C(/Nc1cc(F)cc(Cl)c1)Nc1cc(C(F)(F)F)nn1CC(O)CO)c1cccc(Cl)c1 (single isomer, unassigned) [Compound A-10]	< 10
O=C(/N=C(/Nc1cc(F)cc(Cl)c1)Nc1cc(C(F)(F)F)nn1C1CCCCC1)c1cccc(Cl)c1 [Compound A-27]	< 10
O=C(/N=C(/Nc1cc(F)cc(Cl)c1)Nc1cc(C(F)(F)F)nn1-c1cccc(Cl)c1)c1cccc(Cl)c1 [Compound A-20]	< 10
N#Cc1cccc(C(=O)/N=C(/Nc2cc(F)cc(Cl)c2)Nc2cc(C(F)(F)F)nn2C2CCCC2)c1 [Compound A-54]	< 10
O=C(/N=C(/Nc1cc(F)cc(Cl)c1)Nc1cc(C(F)(F)F)nn1C1CCCC1)c1c(F)cccc1F [Compound A-48]	< 10
O=C(/N=C(/Nc1cccc(Cl)c1)Nc1cc(C(F)(F)F)nn1-c1ccccc1)c1ccc(Cl)cc1 [Compound A-14]	< 10
COc1cc(OC)cc(-n2nc(C(F)(F)F)cc2N/C(=N\C(=O)c2ccc(F)c(F)c2)Nc2cc(F)cc(Cl)c2)c1 [Compound A-31]	< 10
O=C(/N=C(/Nc1cc(F)cc(Cl)c1)Nc1cc(C(F)(F)F)nn1CCO)c1ccc(C(F)(F)F)cc1 [Compound A-1]	< 10
Cc1c(C(F)(F)F)nn(-c2ccc(F)cc2)c1N/C(=N\C(=O)c1cccc(Cl)c1)Nc1cc(F)cc(Cl)c1 [Compound A-23]	< 10
O=C(/N=C(/Nc1cc(F)cc(Cl)c1)Nc1cc(C(F)(F)F)nn1C1CCCCC1)c1ccc(F)c(F)c1 [Compound A-28]	< 10

Structure (SMILES)	EC50 [µM]
O=C(/N=C(/Nc1cc(F)cc(Cl)c1)Nc1ccnn1-c1ccccc1)c1ccc(F)c(F)c1 [Compound A-30]	< 10
COc1cc(O)cc(-n2nc(C(F)(F)F)cc2N/C(=N\C(=O)c2ccc(F)c(F)c2)Nc2cc(F)cc(Cl)c2)c1 [Compound A-34]	< 10
N#Cc1ccc(C(=O)/N=C(/Nc2cc(F)cc(Cl)c2)Nc2cc(C(F)(F)F)nn2C2CCCC2)cc1 [Compound A-51]	< 10
O=C(/N=C(/Nc1cc(F)cc(Cl)c1)Nc1cc(C(F)(F)F)nn1-c1cccc(Cl)c1)c1ccc(C(F)(F)F)cc1 [Compound A-21]	< 10
O=C(/N=C(/Nc1cc(F)cc(Cl)c1)Nc1cc(C(F)(F)F)nn1C1CCCC1)c1cc(F)c(Cl)cc1F [Compound A-40]	< 10
O=C(/N=C(/Nc1cc(F)cc(Cl)c1)Nc1cc(C(F)(F)F)nn1C1CCCC1)c1cccc(F)c1 [Compound A-50]	< 10
O=C(/N=C(/Nc1cc(F)cc(Cl)c1)Nc1cc(C(F)(F)F)nn1-c1cccnc1)c1cccc(Cl)c1 [Compound A-32]	< 10
COc1ccc(C(=O)/N=C(/Nc2cccc(C(F)(F)F)c2)Nc2cc(C(F)(F)F)nn2CCO)cc1 [Compound A-9]	< 10
O=C(/N=C(/Nc1cccc(Cl)c1)Nc1cc(C(F)(F)F)nn1-c1ccc(F)cc1)c1ccc(Cl)cc1 [Compound A-17]	< 10
Cc1cc(Cl)ccc1C(=O)/N=C(/Nc1cc(F)cc(Cl)c1)Nc1cc(C(F)(F)F)nn1C1CCCC1 [Compound A-41]	< 10
O=C(/N=C(/Nc1cc(F)cc(Cl)c1)Nc1cc(C(F)(F)F)nn1-c1ccccc1)c1ccc(Cl)cc1 [Compound A-13]	< 10
O=C(/N=C(/Nc1cc(F)cc(Cl)c1)Nc1cc(C(F)(F)F)nn1C1CCCC1)c1ccccc1Cl [Compound A-56]	< 10
C=CCn1nc(C(F)(F)F)cc1N/C(=N\C(=O)c1cccc(Cl)c1)Nc1cc(F)cc(Cl)c1 [Compound A-12]	< 10
O=C(O)Cn1nc(C(F)(F)F)cc1N/C(=N\C(=O)c1ccc(C(F)(F)F)cc1)Nc1cc(F)cc(Cl)c1 [Compound A-5]	< 10
CC(O)Cn1nc(C(F)(F)F)cc1N/C(=N\C(=O)c1ccc(C(F)(F)F)cc1)Nc1cc(F)cc(Cl)c1 (stereo not shown) [Compound A-3]	< 10
O=C(/N=C(/Nc1cc(F)cc(Cl)c1)Nc1cc(C(F)(F)F)nn1C1CCCC1)c1ccc(Cl)c(F)c1 [Compound A-45]	< 10
O=C(/N=C(/Nc1cccc(C(F)(F)F)c1)Nc1cc(C(F)(F)F)nn1-c1ccccc1)c1ccc(Cl)cc1 [Compound A-15]	< 10
O=C(/N=C(/Nc1cccc(Cl)c1)Nc1cc(C(F)(F)F)nn1C1CCCC1)c1ccccc1Cl [Compound A-57]	< 10
COC(=O)N1CCC(n2nc(C(F)(F)F)cc2N/C(=N\C(=O)c2cccc(Cl)c2)Nc2cc(F)cc(Cl)c2)CC1 [Compound A-38]	< 10

same assay, conditions: read-out: Ramos Cell EC50

Structure (SMILES)	EC50 [µM]
O=C(/N=C(/Nc1cc(F)cc(Cl)c1)Nc1cc(C(F)(F)F)nn1CC(O)CO)c1cccc(Cl)c1 (single isomer, unassigned) [Compound A-11]	< 10
